Source: patent US9296722B2, “Azolyl urea compounds and methods of use thereof” (Ambit Biosciences Corporation, priority 2010, dated 2016)

Legend:
CSF1R (human) = molecular target: T1, CSF1R (human) (Homo sapiens, UniProt P07333); assay: Competition binding assay, CSF1R (human) Kd
T1 construct: made in house; host or cells: T7 phage display or HEK-293 cells (alternatives, not resolved per kinase)
Method: (§1) The liganded beads were blocked with excess biotin and washed with blocking buffer (SeaBlock (Pierce), 1% BSA, 0.05% Tween 20, 1 mM DTT) to remove unbound ligand and to reduce non-specific binding. […] Test compounds were prepared as 100× stocks in DMSO and diluted into the aqueous environment. Kds were determined using an eleven point threefold serial dilutions. DMSO or control compounds were was added to control assays lacking a test compound. […] The kinase concentration in the eluates was measured by quantitative PCR.

CSF1R (mouse) = molecular target: T2, CSF1R (mouse) (Mus musculus, UniProt P09581); assay: Competition binding assay, CSF1R (mouse) Kd
T2 construct: made in house; host or cells: T7 phage display or HEK-293 cells (alternatives, not resolved per kinase)
T2 sequence (P09581 20-977): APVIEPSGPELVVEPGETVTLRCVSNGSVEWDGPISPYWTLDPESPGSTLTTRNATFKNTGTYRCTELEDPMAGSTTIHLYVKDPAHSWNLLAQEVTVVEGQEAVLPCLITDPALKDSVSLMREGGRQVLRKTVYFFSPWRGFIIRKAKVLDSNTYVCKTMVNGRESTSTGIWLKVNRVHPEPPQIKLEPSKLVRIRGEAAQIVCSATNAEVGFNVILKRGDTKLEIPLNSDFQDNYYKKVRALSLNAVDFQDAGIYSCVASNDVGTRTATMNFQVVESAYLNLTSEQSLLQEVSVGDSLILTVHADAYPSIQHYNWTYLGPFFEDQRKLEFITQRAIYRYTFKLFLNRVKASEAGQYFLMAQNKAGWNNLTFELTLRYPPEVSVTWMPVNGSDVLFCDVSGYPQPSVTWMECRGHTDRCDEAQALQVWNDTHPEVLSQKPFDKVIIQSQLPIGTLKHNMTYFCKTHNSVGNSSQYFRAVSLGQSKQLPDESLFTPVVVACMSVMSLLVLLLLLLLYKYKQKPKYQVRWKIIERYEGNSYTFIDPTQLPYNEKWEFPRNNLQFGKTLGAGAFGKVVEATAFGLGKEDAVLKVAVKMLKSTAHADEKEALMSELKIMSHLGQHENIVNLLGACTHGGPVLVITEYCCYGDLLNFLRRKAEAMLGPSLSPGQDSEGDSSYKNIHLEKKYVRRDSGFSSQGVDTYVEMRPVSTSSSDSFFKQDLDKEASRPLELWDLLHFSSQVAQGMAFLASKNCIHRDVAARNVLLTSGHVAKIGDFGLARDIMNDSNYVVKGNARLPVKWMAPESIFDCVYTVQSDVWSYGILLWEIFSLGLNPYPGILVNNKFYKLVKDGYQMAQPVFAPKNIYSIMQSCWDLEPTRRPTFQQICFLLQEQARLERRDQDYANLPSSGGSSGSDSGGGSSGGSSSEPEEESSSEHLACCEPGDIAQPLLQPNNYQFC
Method: as §1

[1] = molecular target: kinase panel containing either 359 or 386 distinct kinases; assay: Competition binding assay, selectivity score (S10) against a panel of kinases; details: compounds at 10 μM; fraction of kinases with percent of control less than 10
Method: Competition binding assays used herein were developed, validated and performed as described in Fabian et al., Nature Biotechnology 2005, 23, 329-336. Kinases were produced as fusions to T7 phage (See, Fabian et al. or WO04/015142) or alternatively, the kinases were expressed in HEK-293 cells and subsequently tagged with DNA for PCR detection (See, WO08/005,310). […] The liganded beads were blocked with excess biotin and washed with blocking buffer (SeaBlock (Pierce), 1% BSA, 0.05% Tween 20, 1 mM DTT) to remove unbound ligand and to reduce non-specific binding. […] Test compounds were prepared as 100× stocks in DMSO and diluted into the aqueous environment. Kds were determined using an eleven point threefold serial dilutions. DMSO or control compounds were was added to control assays lacking a test compound. Primary screen assays were performed in polypropylene 384-well plates in a final volume of 20-40 μL, while Kd determinations were performed in polystyrene 96-well plates in a final volume of […]. […] The kinase concentration in the eluates was measured by quantitative PCR.
A selectivity score (S10) is a quantitative measure of selectivity of a compound against a panel of kinases. An S10 was calculated for a compound by dividing the number of kinases found to have a percent of control (DMSO) less than 10 by the total number of distinct kinases tested (excluding mutant variants). Percent of control (POC) is calculated by subtracting the signal of the control compound
(POC=0) from the signal of the test compound and dividing the outcome by the signal of DMSO (POC=100) minus the signal of the control compound. For the compounds disclosed herein, S10 scores were obtained by testing the compounds at 10 μM concentration in a kinase panel containing either 359 or 386 distinct kinases.

M-NFS-60 cells = assay: M-NFS-60 cell proliferation assay; type: cell-based, mouse; details: Mus musculus; 72 hours incubation, Alamar Blue, M-CSF-dependent cells; read-out: CSF1R Cell Proliferation (M-NFS-60) IC50
Method: In certain embodiments, the compounds disclosed herein are tested in an M-NFS-60 cell proliferation assay to determine their cellular potency against CSF-1R. M-NFS-60s are mouse monocytic cells that depend on the binding of the ligand M-CSF to its receptor, CSF-1R, to proliferate Inhibition of CSF-1R kinase activity will cause reduced growth and/or cell death. This assay assesses the potency of compounds as CSF-1R inhibitors by measuring the reduction of Alamar Blue reagent by viable cells. An exemplary assay is described in the Examples section.
The compounds disclosed herein were tested in an M-NFS-60 cell proliferation assay to determine their cellular potency against CSF1R. M-NFS-60s are mouse monocytic cells that depend on the binding of the ligand M-CSF to its receptor, CSF1R, to proliferate Inhibition of CSF1R kinase activity will cause reduced growth and/or cell death. This assay assesses the potency of compounds as CSF1R inhibitors by measuring the reduction of Alamar Blue reagent by viable cells.
On day one of the experiment, M-NFS-60 cells were maintained in RPMI complete medium (Omega Scientific) plus 10% FBS supplemented with 20 ng/mL of M-CSF (R&D Systems). 96-well TC-treated, flat bottom plates were seeded at 10,000 cell/well at a volume of 100 μL per well. The cells were cultured overnight at 37° C. under 5% CO2.
On day two, compounds were added to the cells at 9 different concentrations, with half-log intervals alongside a control reference compound serving as a positive control. Final DMSO concentration was kept at 0.5% for a final volume of 200 μL. The compounds were allowed to incubate with the cells for 72 hours at 37° C. under 5% CO2.
On day five of the experiment, 40 μl of Alamar Blue reagent was added to each well and allowed to incubate for 3 hours. Alamar Blue fluorescence was read using SoftMax Pro software at 560 nm (excitation) and 590 nm (emission). IC50s were generated as an average of duplicates and represents the concentration of test compound that achieves 50% inhibition of cellular proliferation compared to control.

T1 sequence (P07333 20-972): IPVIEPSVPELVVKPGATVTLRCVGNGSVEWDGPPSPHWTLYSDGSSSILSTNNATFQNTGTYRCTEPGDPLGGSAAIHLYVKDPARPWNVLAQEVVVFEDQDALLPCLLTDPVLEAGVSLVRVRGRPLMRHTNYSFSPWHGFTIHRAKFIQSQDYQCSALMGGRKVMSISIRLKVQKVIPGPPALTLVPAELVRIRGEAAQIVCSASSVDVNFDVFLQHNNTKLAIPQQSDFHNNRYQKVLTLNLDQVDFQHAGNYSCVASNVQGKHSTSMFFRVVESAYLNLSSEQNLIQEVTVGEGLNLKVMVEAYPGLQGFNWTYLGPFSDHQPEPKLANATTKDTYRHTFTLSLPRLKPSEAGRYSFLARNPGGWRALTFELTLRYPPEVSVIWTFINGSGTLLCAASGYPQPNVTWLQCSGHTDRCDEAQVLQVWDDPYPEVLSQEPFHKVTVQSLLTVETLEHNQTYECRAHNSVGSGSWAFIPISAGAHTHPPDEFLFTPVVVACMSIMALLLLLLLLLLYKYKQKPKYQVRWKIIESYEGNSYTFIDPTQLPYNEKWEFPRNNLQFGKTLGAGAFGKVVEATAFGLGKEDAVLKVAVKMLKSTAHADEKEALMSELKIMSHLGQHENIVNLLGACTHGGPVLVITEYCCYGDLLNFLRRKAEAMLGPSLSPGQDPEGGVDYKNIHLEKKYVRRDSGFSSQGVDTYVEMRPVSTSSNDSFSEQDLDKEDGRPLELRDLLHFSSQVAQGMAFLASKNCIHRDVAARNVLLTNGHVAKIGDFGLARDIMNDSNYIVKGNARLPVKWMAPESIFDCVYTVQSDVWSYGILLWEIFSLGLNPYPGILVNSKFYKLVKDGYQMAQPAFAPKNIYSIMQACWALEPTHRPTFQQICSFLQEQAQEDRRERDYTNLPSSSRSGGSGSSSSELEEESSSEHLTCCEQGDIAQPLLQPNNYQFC

| Structure (SMILES) | Kd (CSF1R (human)) [nM] | Kd (CSF1R (mouse)) [nM] | Kinase Specificity (S10) [1] | IC50 (M-NFS-60 cells) [nM] |
| --- | --- | --- | --- | --- |
| CN1CCN(c2ccc(C(=O)Nc3ccc(NC(=O)Nc4cc(C(C)(C)C)on4)cc3)nc2)CC1 | < 3 | < 3 | C (C > 0.05) | ≤ 100 |
| CC(C)(C)OC(=O)N1CCC(Oc2ccc(C(=O)N[C@H]3CC[C@H](NC(=O)Nc4cc(C(C)(C)C)on4)CC3)nc2)CC1 | > 10 | 3 to 10 | A (A ≦ 0.03) | 250 to 1000 |
| CN1CCN(c2cccc(C(=O)Nc3ccc(NC(=O)Nc4cc(C(C)(C)C)on4)cc3)n2)CC1 | 3 to 10 | 3 to 10 | B (0.03 < B ≦ 0.05) | > 1000 |
| CN1CCC(Oc2ccnc(C(=O)Nc3ccc(NC(=O)Nc4cc(C(C)(C)C)on4)cc3)c2)CC1 | 3 to 10 | 3 to 10 | B (0.03 < B ≦ 0.05) | 250 to 1000 |
| CC(C)N1CCC(Oc2ccc(C(=O)Nc3ccc(NC(=O)Nc4cc(C(C)(CF)CF)on4)cc3)nc2)CC1 | < 3 | < 3 | B (0.03 < B ≦ 0.05) | ≤ 100 |
| CC(C)(C)c1cc(NC(=O)N[C@H]2CC[C@H](NC(=O)c3ccc(OC4CCNCC4)cn3)CC2)no1 | 3 to 10 | 3 to 10 | A (A ≦ 0.03) | > 1000 |
| CCN(CC)Cc1ccnc(C(=O)Nc2ccc(NC(=O)Nc3cc(C(C)(C)C)on3)cc2)c1 | 3 to 10 | 3 to 10 | A (A ≦ 0.03) | 250 to 1000 |
| CN1CCC(Oc2ccc(C(=O)Nc3ccc(NC(=O)Nc4cc(C(C)(CF)CF)on4)cc3)nc2)CC1 | < 3 | < 3 | B (0.03 < B ≦ 0.05) | ≤ 100 |
| CN1CCN(c2ccnc(C(=O)Nc3ccc(NC(=O)Nc4cc(C(C)(C)C)on4)cc3)c2)CC1 | 3 to 10 | 3 to 10 | B (0.03 < B ≦ 0.05) | 100 to 250 |
| CC(C)(C)c1cc(NC(=O)Nc2ccc(NC(=O)c3cccc(CN4CCOCC4)n3)cc2)no1 | > 10 | > 10 | B (0.03 < B ≦ 0.05) | > 1000 |
| CCN1CCC(Oc2ccc(C(=O)N[C@H]3CC[C@H](NC(=O)Nc4cc(C(C)(C)C)on4)CC3)nc2)CC1 | 3 to 10 | 3 to 10 | A (A ≦ 0.03) | 250 to 1000 |
| CC(CF)(CF)c1cc(NC(=O)Nc2ccc(NC(=O)c3ccc(OC4CCN(CC(F)(F)F)CC4)cn3)cc2)no1 | < 3 | < 3 | A (A ≦ 0.03) | 100 to 250 |
| CCN(CC)Cc1cccc(C(=O)Nc2ccc(NC(=O)Nc3cc(C(C)(C)C)on3)cc2)n1 | > 10 | > 10 | A (A ≦ 0.03) | > 1000 |
| CN1C2CCC1CC(Oc1ccc(C(=O)Nc3ccc(NC(=O)Nc4cc(C(C)(C)C)on4)cc3)nc1)C2 (stereo not shown) | < 3 | – | C (C > 0.05) | ≤ 100 |
| CCN1C(C)(C)CC(Oc2ccc(C(=O)Nc3ccc(NC(=O)Nc4cc(C(C)(C)C)no4)cc3)nc2)CC1(C)C | > 10 | – | B (0.03 < B ≦ 0.05) | ≤ 100 |
| CN1C(C)(C)CC(Oc2ccc(C(=O)Nc3ccc(NC(=O)Nc4cc(C(C)(CF)CF)on4)cc3)nc2)CC1(C)C | < 3 | – | B (0.03 < B ≦ 0.05) | ≤ 100 |
| CCN1CC(Oc2ccc(C(=O)Nc3ccc(NC(=O)Nc4cc(C(C)(C)C)on4)cc3)nc2)C1 | < 3 | – | B (0.03 < B ≦ 0.05) | 100 to 250 |
| CC(C)N1CC(Oc2ccc(C(=O)Nc3ccc(NC(=O)Nc4cc(C(C)(C)C)on4)cc3)nc2)C1 | < 3 | – | B (0.03 < B ≦ 0.05) | ≤ 100 |
| CN1C(C)(C)CC(Oc2ccc(C(=O)Nc3ccc(NC(=O)Nc4cc(C(C)(C)F)no4)cc3)nc2)CC1(C)C | < 3 | – | A (A ≦ 0.03) | ≤ 100 |
| CCN1CCC(Oc2ccc(C(=O)Nc3ccc(NC(=O)Nc4cc(C(C)(C)C(F)(F)F)on4)cc3)nc2)CC1 | < 3 | – | C (C > 0.05) | ≤ 100 |
| CC(C)(C)c1cc(NC(=O)Nc2ccc(NC(=O)c3ccc(OC4CN(C5COC5)C4)cn3)cc2)no1 | < 3 | – | C (C > 0.05) | ≤ 100 |
| CC(C)N1CCC(Oc2ccc(C(=O)Nc3ccc(NC(=O)Nc4cc(C(C)(C)C)on4)cc3)nc2)C1 (stereo not shown) | < 3 | – | B (0.03 < B ≦ 0.05) | ≤ 100 |
| CC(C)(C)c1cc(NC(=O)Nc2ccc(NC(=O)c3ccc(OC4CCN(C5COC5)C4)cn3)cc2)no1 (stereo not shown) | < 3 | – | B (0.03 < B ≦ 0.05) | ≤ 100 |
| CCN1CCC(Oc2ccc(C(=O)Nc3ccc(NC(=O)Nc4cc(C(C)(C)C)on4)cc3)nc2)C1 (stereo not shown) | < 3 | – | B (0.03 < B ≦ 0.05) | ≤ 100 |
| CCN1CC[C@@H](COc2ccc(C(=O)Nc3ccc(NC(=O)Nc4cc(C(C)(C)C)on4)cc3)nc2)C1 | > 10 | – | C (C > 0.05) | ≤ 100 |
| CC(C)N1CCC(Oc2ccc(C(=O)Nc3ccc(N(C)C(=O)Nc4cc(C(C)(C)C)on4)cc3)nc2)C1 (stereo not shown) | < 3 | – | C (C > 0.05) | 100 to 250 |
